Data taken from patent US6730780B2, “Water-based ink” (Kao Corporation, priority 2000, dated 2004).

experiment: Solvent solubility of dye; format: physicochemical; set-up: key: ◯: Dye not being dissolved; x: Dye being dissolved; details: 20 parts by weight dye in 100 parts by weight 2-butanone, 20° C.
Description: Twenty parts by weight of a dye was added to 100 parts by weight of a solvent shown in Table 1, and whether or not the dye is dissolved in the solvent at 20° C. was observed. The evaluation was made on the basis of the following evaluation criteria:
x: Dye not being dissolved

Solvent Solubility 2-Butanone	Compound
◯	C.I. Solvent Red 49 [Dye l]

same assay, conditions: 20 parts by weight dye in 100 parts by weight ethanol, 20° C.

Solvent Solubility Ethanol	Compound
◯	C.I. Solvent Red 49 [Dye l]

same assay, conditions: 20 parts by weight dye in 100 parts by weight tetrahydrofuran, 20° C.

Solvent Solubility Tetrahydrofuran	Compound
◯	C.I. Solvent Red 49 [Dye l]

same assay, conditions: 20 parts by weight dye in 100 parts by weight toluene, 20° C.

Solvent Solubility Toluene	Compound
◯	C.I. Solvent Red 49 [Dye l]

experiment: Ozone resistance of printed matter; format: physicochemical; details: ink containing the dye; printed matter exposed to 3 ppm ozone for 2 hours
Excerpt: (§1) There were mixed together 8 parts by weight of a coloring material-containing emulsion obtained in the above item (2) or a 30% aqueous solution of a dye obtained in any one of Reference Examples 1 to 5, 10 parts by weight of trimethylglycine, 5 parts by weight of urea, 1 part by weight of sodium 2-ethylhexylsulfosuccinate and 76 parts by weight of purified water, to give an ink.
(§2) An inkjet printer cartridge (commercially available from CANON INC. under the trade name of BCI-21e) was charged with an ink, and the inkjet printer cartridge was loaded on a bubble jet printer (commercially available from CANON INC. under the model number of BJC430J). Printing was carried out on plain paper (commercially available from CANON INC. under the trade name of The Plain Paper for Inkjet Printing PB Paper) and on high-resolution coated paper (commercially available from CANON INC. under the trade name of (The High Resolution Coated Paper HR-101), and sufficiently dried. Thereafter, the following physical properties of the printed paper were evaluated. The results are shown in Table 2.
(4) Ozone Resistance
A printed matter on a paper sheet for plain paper copy was exposed in a gas stream having an ozone concentration of 3 ppm for 2 hours, and the color tone (L*a*b*) before and after exposure was determined by using a colorinmeter [commercially available from Nippon Denshoku Kogyo Kabushiki Kaisha under the trade name of SE2000], and indicated by ΔE.

Compound	Ozone Resistance (ΔE)
C.I. Acid Yellow 17 [Dye c]	3
C.I. Direct Yellow 86 [Dye d]	10
C.I. Acid Yellow 23 [Dye b]	5
C.I. Acid Red 289 [Dye a]	4
C.I. Direct Yellow 132 [Dye e]	0

Continued, values first:

Ozone Resistance (ΔE)	Compound
0	CCCCCCN(CCCCCC)S(=O)(=O)c1ccc(N=NC2C(=O)N(c3cc(Cl)c(S(=O)(=O)N(CCCCCC)CCCCCC)cc3Cl)N=C2C)cc1 (centres unmarked) [Oil-Soluble Dye IC]
8	C.I. Solvent Red 49 [Dye l]
0	CCCCN(CCCC)C(=O)C1=NN(c2ccc(S(=O)(=O)N(CCCC)CCCC)cc2)C(=O)C1N=Nc1ccc(S(=O)(=O)N(CCCC)CCCC)cc1 (centres unmarked) [Oil-Soluble Dye IB]
0	CCCCN(CCCC)S(=O)(=O)c1cccc(N=Nc2ccc(NC(=O)Nc3ccc(N=Nc4cccc(S(=O)(=O)N(CCCC)CCCC)c4)cc3OC)c(OC)c2)c1 [Oil-Soluble Dye ID]

experiment: Light fastness of printed matter (OD residual ratio); format: physicochemical; details: ink containing the dye; printed matter irradiated at 10000 kJ/m^2, xenon fade meter
Excerpt: as §1, §2
(3) Light Fastness
A printed matter of the PB Paper (commercially available from CANON INC.) was irradiated at 10000 kJ/m^2 with a xenon fade meter (commercially available from Suga Shikenki K.K. under the trade name of Low-temperature cycle-xenon-long life-fade meter). The optical density (OD) of the same site before and after irradiation was determined by using the same optical density analyzer as above. Its OD residual ratio was obtained in accordance with the following equation: [formula]

Compound	Light Fastness [OD Residual Ratio (%)] [%]
C.I. Acid Yellow 17 [Dye c]	93
C.I. Direct Yellow 86 [Dye d]	86
C.I. Acid Yellow 23 [Dye b]	87
C.I. Acid Red 289 [Dye a]	73
C.I. Direct Yellow 132 [Dye e]	82

Other lines, results leading:

Light Fastness [OD Residual Ratio (%)] [%]	Compound
100	CCCCCCN(CCCCCC)S(=O)(=O)c1ccc(N=NC2C(=O)N(c3cc(Cl)c(S(=O)(=O)N(CCCCCC)CCCCCC)cc3Cl)N=C2C)cc1 (centres unmarked) [Oil-Soluble Dye IC]
45	C.I. Solvent Red 49 [Dye l]
98	CCCCN(CCCC)C(=O)C1=NN(c2ccc(S(=O)(=O)N(CCCC)CCCC)cc2)C(=O)C1N=Nc1ccc(S(=O)(=O)N(CCCC)CCCC)cc1 (centres unmarked) [Oil-Soluble Dye IB]
94	CCCCN(CCCC)S(=O)(=O)c1cccc(N=Nc2ccc(NC(=O)Nc3ccc(N=Nc4cccc(S(=O)(=O)N(CCCC)CCCC)c4)cc3OC)c(OC)c2)c1 [Oil-Soluble Dye ID]

experiment: Water resistance, alkali resistance and acid resistance of dye on plain paper; format: physicochemical; set-up: key: ◯: Dye not being dissolved; x: Dye being dissolved; details: dyed plain paper immersed in 1 N aqueous hydrochloric acid for 10 minutes
Description: A. Water Resistance, Alkali Resistance and Acid Resistance
In 10 ml of tetrahydrofuran was dissolved 0.1 g of a dye. A paper sheet for plain paper copy [commercially available from XEROX CO., LTD. under the trade name of XEROX 4024] was immersed in the solution for 10 minutes, and thereafter taken out therefrom to be air-dried at 25° C. for 24 hours. After drying, the paper was immersed in water (water resistance), a 1 N-aqueous sodium bydroxide (alkali resistance), or a 1 N-aqueous hydrochloric acid (acid resistance) for 10 minutes to examine whether or not the dye is dissolved in each solvent. The evaluation was made on the basis of the following evaluation criteria:
◯: Dye not being dissolved

Acid Resistance	Compound
◯	C.I. Solvent Red 49 [Dye l]

same assay, conditions: dyed plain paper immersed in 1 N aqueous sodium hydroxide for 10 minutes

Alkali Resistance	Compound
◯	C.I. Solvent Red 49 [Dye l]

same assay, conditions: dyed plain paper immersed in water for 10 minutes

Water Resistance	Compound
◯	C.I. Solvent Red 49 [Dye l]

experiment: Storage stability of ink (retention ratio of physical properties); format: physicochemical; details: ink containing the dye, stored at 60° C. for 3 months
Description: In 10 g of toluene was dissolved 0.6 g of each dye obtained in Preparation Examples 1 to 5 or Reference Example 6 or 7, and 1.4 g of the vinyl polymer solution obtained in the above item (1) was added to the resulting mixed solution, and the mixture was sufficiently stirred to dissolve the dye.
Next, 5.21 g of a 1 N aqueous potassium hydroxide and 50 g of purified water were added to the resulting solution, and the mixture was further sufficiently stirred. After stirring, the mixture was emulsified with an ultrasonic homogenizer at 400 μA for 20 minutes. Thereafter, toluene was removed with heating under reduced pressure, and the resulting mixture was filtered with a 0.8 μm filter, to give a coloring material-containing emulsion in which the dye was contained in the vinyl polymer.
as §1
A. Storage Stability of Ink
A 100 mL bottle made of a fluorocarbon resin was charged with an ink, and the bottle was stored in the air at 60° C. for 3 months. As the physical properties, particle sizes before and after storage (determined by a particle size distribution analyzer commercially available from OtsuKa Denshi K.K. under the trade name of ELS-8000), viscosity (determined at 25° C. by a viscometer commercially available from Toki Sangyo K.K. under the trade name of VISCOMETER ELS-80L) and surface tension (determined at 25° C. by a surface tension meter commercially available from Kyowa Kaimen Kagaku K.K. under the trade name of AUTOMATIC Surface Tensiometer CBVP-Z) were examined. The retention ratio in each physical property was obtained in accordance with the following equation: [formula]

Retention Ratio of Physical Properties After Storage (%) Particle Size [%]	Compound
99.4	CCCCCCN(CCCCCC)S(=O)(=O)c1ccc(N=NC2C(=O)N(c3cc(Cl)c(S(=O)(=O)N(CCCCCC)CCCCCC)cc3Cl)N=C2C)cc1 (centres unmarked) [Oil-Soluble Dye IC]
93	C.I. Solvent Red 49 [Dye l]
98.4	CCCCN(CCCC)C(=O)C1=NN(c2ccc(S(=O)(=O)N(CCCC)CCCC)cc2)C(=O)C1N=Nc1ccc(S(=O)(=O)N(CCCC)CCCC)cc1 (centres unmarked) [Oil-Soluble Dye IB]
101.3	CCCCN(CCCC)S(=O)(=O)c1cccc(N=Nc2ccc(NC(=O)Nc3ccc(N=Nc4cccc(S(=O)(=O)N(CCCC)CCCC)c4)cc3OC)c(OC)c2)c1 [Oil-Soluble Dye ID]

same assay, conditions: ink containing the dye, stored at 60° C. for 3 months; surface tension at 25° C.

Compound	Retention Ratio of Physical Properties After Storage (%) Surface Tension [%]
C.I. Acid Yellow 17 [Dye c]	98.6
C.I. Direct Yellow 86 [Dye d]	93.9
C.I. Acid Yellow 23 [Dye b]	96.6
C.I. Acid Red 289 [Dye a]	99.7
C.I. Direct Yellow 132 [Dye e]	101.2

Continued, values first:

Retention Ratio of Physical Properties After Storage (%) Surface Tension [%]	Compound
98.5	CCCCCCN(CCCCCC)S(=O)(=O)c1ccc(N=NC2C(=O)N(c3cc(Cl)c(S(=O)(=O)N(CCCCCC)CCCCCC)cc3Cl)N=C2C)cc1 (centres unmarked) [Oil-Soluble Dye IC]
97.9	C.I. Solvent Red 49 [Dye l]
97.3	CCCCN(CCCC)C(=O)C1=NN(c2ccc(S(=O)(=O)N(CCCC)CCCC)cc2)C(=O)C1N=Nc1ccc(S(=O)(=O)N(CCCC)CCCC)cc1 (centres unmarked) [Oil-Soluble Dye IB]
97.0	CCCCN(CCCC)S(=O)(=O)c1cccc(N=Nc2ccc(NC(=O)Nc3ccc(N=Nc4cccc(S(=O)(=O)N(CCCC)CCCC)c4)cc3OC)c(OC)c2)c1 [Oil-Soluble Dye ID]

same assay, conditions: ink containing the dye, stored at 60° C. for 3 months; viscosity at 25° C.

Compound	Retention Ratio of Physical Properties After Storage (%) Viscosity [%]
C.I. Acid Yellow 17 [Dye c]	105
C.I. Direct Yellow 86 [Dye d]	92
C.I. Acid Yellow 23 [Dye b]	96
C.I. Acid Red 289 [Dye a]	105
C.I. Direct Yellow 132 [Dye e]	105

Now from value to compound:

Retention Ratio of Physical Properties After Storage (%) Viscosity [%]	Compound
100	CCCCCCN(CCCCCC)S(=O)(=O)c1ccc(N=NC2C(=O)N(c3cc(Cl)c(S(=O)(=O)N(CCCCCC)CCCCCC)cc3Cl)N=C2C)cc1 (centres unmarked) [Oil-Soluble Dye IC]
91	C.I. Solvent Red 49 [Dye l]
95	CCCCN(CCCC)C(=O)C1=NN(c2ccc(S(=O)(=O)N(CCCC)CCCC)cc2)C(=O)C1N=Nc1ccc(S(=O)(=O)N(CCCC)CCCC)cc1 (centres unmarked) [Oil-Soluble Dye IB]
96	CCCCN(CCCC)S(=O)(=O)c1cccc(N=Nc2ccc(NC(=O)Nc3ccc(N=Nc4cccc(S(=O)(=O)N(CCCC)CCCC)c4)cc3OC)c(OC)c2)c1 [Oil-Soluble Dye ID]

experiment: Water resistance of printed matter (OD residual ratio); format: physicochemical; details: ink containing the dye; printed matter soaked in purified water at 25° C. for 10 minutes
Excerpt: as §1, §2
(2) Water Resistance
The printed matter on a paper sheet for plain paper copy was soaked in purified water at 25° C. for 10 minutes, and thereafter water was sufficiently removed to be air-dried. The optical density (hereinafter referred to as OD) of the same site before and after soaking was determined by using an optical density analyzer [commercially available from Macbeth Process Measurements Co., umder the trade name of reflection densitometer RD-914]. Its OD residual ratio was obtained in accordance with the following equation: [formula]

Compound	Water Resistance [OD Residual Ratio (%)] [%]
C.I. Acid Yellow 17 [Dye c]	42
C.I. Direct Yellow 86 [Dye d]	56
C.I. Acid Yellow 23 [Dye b]	40
C.I. Acid Red 289 [Dye a]	84
C.I. Direct Yellow 132 [Dye e]	35

Other lines, results leading:

Water Resistance [OD Residual Ratio (%)] [%]	Compound
100	CCCCCCN(CCCCCC)S(=O)(=O)c1ccc(N=NC2C(=O)N(c3cc(Cl)c(S(=O)(=O)N(CCCCCC)CCCCCC)cc3Cl)N=C2C)cc1 (centres unmarked) [Oil-Soluble Dye IC]
100	C.I. Solvent Red 49 [Dye l]
100	CCCCN(CCCC)C(=O)C1=NN(c2ccc(S(=O)(=O)N(CCCC)CCCC)cc2)C(=O)C1N=Nc1ccc(S(=O)(=O)N(CCCC)CCCC)cc1 (centres unmarked) [Oil-Soluble Dye IB]
100	CCCCN(CCCC)S(=O)(=O)c1cccc(N=Nc2ccc(NC(=O)Nc3ccc(N=Nc4cccc(S(=O)(=O)N(CCCC)CCCC)c4)cc3OC)c(OC)c2)c1 [Oil-Soluble Dye ID]
